These results are taken from ChEMBL document CHEMBL1201862, “PubChem BioAssay data set” (2004).

Active and inactive are the calls of the source. Where only a bound is given, the exact number is not on record here.

The subject of one experiment is P388. The experiment can be described thus: cells. It counts as functional. Particulars: Mus musculus.
The subject of the next experiment is P388/ADR. The experiment can be described thus: cells. The conditions noted are these: Mus musculus. In kind it is functional.
The target of experiment [1] is Glucose-6-phosphate 1-dehydrogenase (Homo sapiens, UniProt P11413). The experiment can be described thus: human G6PD enzyme inhibitors, dose response, selectivity assay for P. falciparum G6PD inhibitor project, biochemical, fluorescence (AID 504792). In kind it is functional.
Experiment [2] addresses T1, Heat shock factor protein 1 (Mus musculus, UniProt P38532).
T1 sequence (P38532 whole entry): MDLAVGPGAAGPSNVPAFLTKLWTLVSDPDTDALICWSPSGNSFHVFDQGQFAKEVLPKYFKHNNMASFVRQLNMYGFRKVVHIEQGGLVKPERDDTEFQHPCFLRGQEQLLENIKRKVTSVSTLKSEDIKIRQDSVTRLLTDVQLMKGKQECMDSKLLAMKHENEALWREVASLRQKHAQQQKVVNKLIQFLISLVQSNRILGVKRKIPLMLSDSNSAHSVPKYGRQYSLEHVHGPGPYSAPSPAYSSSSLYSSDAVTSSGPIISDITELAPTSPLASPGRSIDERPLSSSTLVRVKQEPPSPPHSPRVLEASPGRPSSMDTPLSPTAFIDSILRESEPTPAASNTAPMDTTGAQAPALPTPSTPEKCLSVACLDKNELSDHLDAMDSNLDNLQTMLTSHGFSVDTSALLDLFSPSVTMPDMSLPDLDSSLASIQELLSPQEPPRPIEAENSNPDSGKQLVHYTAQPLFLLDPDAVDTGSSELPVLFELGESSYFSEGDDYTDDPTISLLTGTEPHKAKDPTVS
The experiment can be described thus: inhibition of MG132-induced HSE-luciferase signal, confirmation, cell-based, NIH3T3, luminescence, dose retest (AID 2382).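 Note: NIH3T3 fibroblasts with HSF1-driven luciferase reporter stressed by proteasome inhibitor MG132; luminescence from HSF1-driven luciferase expression after 8 hours of MG132 stress.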 It counts as functional.

Experiment [3] addresses T2, Microphthalmia-associated transcription factor (Homo sapiens, UniProt O75030).
T2 sequence (O75030 whole entry): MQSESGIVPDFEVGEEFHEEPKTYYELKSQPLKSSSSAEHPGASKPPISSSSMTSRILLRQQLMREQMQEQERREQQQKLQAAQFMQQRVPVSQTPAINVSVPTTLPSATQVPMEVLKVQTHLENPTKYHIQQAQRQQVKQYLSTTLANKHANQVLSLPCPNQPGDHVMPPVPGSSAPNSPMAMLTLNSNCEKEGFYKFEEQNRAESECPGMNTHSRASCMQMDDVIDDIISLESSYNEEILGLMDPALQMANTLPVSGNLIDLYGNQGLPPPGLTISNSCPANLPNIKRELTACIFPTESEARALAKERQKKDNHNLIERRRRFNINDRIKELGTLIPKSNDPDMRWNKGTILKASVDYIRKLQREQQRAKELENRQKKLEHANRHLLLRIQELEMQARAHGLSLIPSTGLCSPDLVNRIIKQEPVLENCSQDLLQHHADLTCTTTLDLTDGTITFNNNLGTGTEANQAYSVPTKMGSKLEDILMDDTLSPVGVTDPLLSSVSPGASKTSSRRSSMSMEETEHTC
The experiment can be described thus: TRPM1 promoter luciferase signal decrease, dose response, MITF inhibitor project, cell-based, SK-MEL-5, cherry-picked, set 3 (AID 493073).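 Note: SK-MEL-5 melanoma cells with luciferase driven by the MITF target TRPM1 promoter.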 In kind it is functional.

The target in the next experiment is T3, Protein skinhead-1 (Caenorhabditis elegans, UniProt P34707).
T3 sequence (P34707 whole entry): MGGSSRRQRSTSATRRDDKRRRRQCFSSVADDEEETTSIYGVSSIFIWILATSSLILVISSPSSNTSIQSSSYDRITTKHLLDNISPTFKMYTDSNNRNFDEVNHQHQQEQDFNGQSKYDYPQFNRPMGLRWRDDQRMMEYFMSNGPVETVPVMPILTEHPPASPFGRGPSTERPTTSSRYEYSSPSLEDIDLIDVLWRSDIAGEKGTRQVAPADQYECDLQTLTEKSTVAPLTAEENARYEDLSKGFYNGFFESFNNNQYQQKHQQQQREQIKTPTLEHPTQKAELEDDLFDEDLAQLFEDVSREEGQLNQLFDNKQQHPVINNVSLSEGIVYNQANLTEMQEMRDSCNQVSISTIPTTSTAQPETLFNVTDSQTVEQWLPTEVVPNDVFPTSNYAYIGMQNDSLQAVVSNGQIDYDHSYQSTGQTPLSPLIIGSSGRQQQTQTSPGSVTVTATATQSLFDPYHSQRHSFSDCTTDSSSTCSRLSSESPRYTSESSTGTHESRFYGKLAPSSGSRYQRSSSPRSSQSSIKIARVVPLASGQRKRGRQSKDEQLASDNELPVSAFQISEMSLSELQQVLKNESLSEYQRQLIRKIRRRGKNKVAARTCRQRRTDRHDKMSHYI
In kind it is functional.

For another experiment, the system named is SN12K1. The experiment can be described thus: cells. It counts as functional. The conditions noted are these: Homo sapiens.
Experiment [4] deals with T4, Polyadenylate-binding protein 1 (Homo sapiens, UniProt P11940). The experiment can be described thus: PABP1 MLLE–PAM2 interaction inhibitors, dose response, miRNA deadenylation inhibitor project, biochemical, fluorescence polarization, Cy5-PAM2 peptide, secondary (AID 602260). It counts as functional. Particulars: read-out: IC50_Mean. Background: Polarisation of emitted light reports the rotation of a fluorescent probe.

Experiment [5] concerns the target T4, Polyadenylate-binding protein 1. The experiment can be described thus: PABP1 MLLE–PAM2 binding inhibitor potency, dose response, biochemical, fluorescence polarization, FITC-PAM2 peptide (AID 602259). In kind it is functional. Particulars: read-out: IC50_Mean.
In experiment [6] the target is T5, Histone-lysine N-methyltransferase NSD2 (Homo sapiens, UniProt O96028).
T5 sequence (O96028 whole entry): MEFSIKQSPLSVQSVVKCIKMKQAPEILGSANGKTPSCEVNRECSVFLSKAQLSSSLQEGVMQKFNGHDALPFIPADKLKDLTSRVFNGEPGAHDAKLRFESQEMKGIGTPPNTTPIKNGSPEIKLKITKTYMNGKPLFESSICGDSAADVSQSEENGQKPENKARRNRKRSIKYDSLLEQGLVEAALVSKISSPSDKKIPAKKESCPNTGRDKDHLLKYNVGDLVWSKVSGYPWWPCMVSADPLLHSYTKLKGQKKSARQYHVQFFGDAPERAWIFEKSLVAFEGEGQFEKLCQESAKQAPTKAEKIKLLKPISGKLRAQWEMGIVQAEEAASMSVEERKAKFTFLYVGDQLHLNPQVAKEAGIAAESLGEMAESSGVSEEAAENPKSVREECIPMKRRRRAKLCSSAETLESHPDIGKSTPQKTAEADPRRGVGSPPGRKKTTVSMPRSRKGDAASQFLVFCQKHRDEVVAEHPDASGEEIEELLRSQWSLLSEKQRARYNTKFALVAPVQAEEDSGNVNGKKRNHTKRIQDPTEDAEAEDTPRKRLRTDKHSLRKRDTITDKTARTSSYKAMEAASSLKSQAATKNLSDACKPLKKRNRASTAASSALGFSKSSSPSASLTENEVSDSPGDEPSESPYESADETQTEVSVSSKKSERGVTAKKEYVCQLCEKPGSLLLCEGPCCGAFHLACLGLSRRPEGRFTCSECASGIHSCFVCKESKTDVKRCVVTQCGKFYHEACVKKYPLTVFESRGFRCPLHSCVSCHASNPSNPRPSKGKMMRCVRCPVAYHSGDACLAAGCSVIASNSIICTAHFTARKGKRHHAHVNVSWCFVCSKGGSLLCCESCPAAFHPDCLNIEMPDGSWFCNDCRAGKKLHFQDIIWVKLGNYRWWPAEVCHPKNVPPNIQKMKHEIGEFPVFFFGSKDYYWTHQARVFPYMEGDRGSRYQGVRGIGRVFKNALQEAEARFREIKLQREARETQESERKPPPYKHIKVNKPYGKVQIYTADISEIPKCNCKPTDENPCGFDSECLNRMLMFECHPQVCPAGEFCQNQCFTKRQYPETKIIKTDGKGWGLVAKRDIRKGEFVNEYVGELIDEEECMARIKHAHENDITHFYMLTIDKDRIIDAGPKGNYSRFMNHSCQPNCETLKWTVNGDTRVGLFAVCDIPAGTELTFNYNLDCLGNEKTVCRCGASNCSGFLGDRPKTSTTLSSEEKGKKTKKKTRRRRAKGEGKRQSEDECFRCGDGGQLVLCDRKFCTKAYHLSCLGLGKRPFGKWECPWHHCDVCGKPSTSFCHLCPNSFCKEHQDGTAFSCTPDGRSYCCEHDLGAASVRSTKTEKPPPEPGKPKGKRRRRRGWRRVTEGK
It counts as biochemical.

Experiment [7] is described as follows: cells. In kind it is functional.
Experiment [8] is described as follows: cells. It counts as functional, cell-based.
Experiment [9] can be described thus: cells. In kind it is functional, cell-based. This is another data set of the same source.
Experiment [10] is described as follows: cytotoxicity toward NIH3T3 fibroblasts, dose response, counter-screen, cell-based, ATP luminescence, mouse fibroblasts (AID 2010).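 Note: cells exposed to compound for about 90 hours before reading.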 In kind it is functional. On the technique in general: Counterscreens check selectivity or assay interference.
A short description of experiment [11]: Luminescence Cell-Based Dose Retest to Confirm Inhibitors of Cancer Stem Cells. [Related pubchem assays (depositor defined):AID2717, AID2721]. It counts as functional. Particulars: Homo sapiens.
Experiment [12] can be described thus: inhibitors of intracellular T. cruzi replication, confirmation, NIH3T3 host cells, beta-gal luminescence (AID 2044).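 Note: intracellular parasites grown in NIH/3T3 mouse fibroblasts as host cells; luminescent beta-galactosidase reporter signal from transgenic T. cruzi replicating inside host cells; inhibitors lower the luminescence signal.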 It counts as functional, cell-based.

Glucose-6-phosphate 1-dehydrogenase, sequence (P11413 whole entry): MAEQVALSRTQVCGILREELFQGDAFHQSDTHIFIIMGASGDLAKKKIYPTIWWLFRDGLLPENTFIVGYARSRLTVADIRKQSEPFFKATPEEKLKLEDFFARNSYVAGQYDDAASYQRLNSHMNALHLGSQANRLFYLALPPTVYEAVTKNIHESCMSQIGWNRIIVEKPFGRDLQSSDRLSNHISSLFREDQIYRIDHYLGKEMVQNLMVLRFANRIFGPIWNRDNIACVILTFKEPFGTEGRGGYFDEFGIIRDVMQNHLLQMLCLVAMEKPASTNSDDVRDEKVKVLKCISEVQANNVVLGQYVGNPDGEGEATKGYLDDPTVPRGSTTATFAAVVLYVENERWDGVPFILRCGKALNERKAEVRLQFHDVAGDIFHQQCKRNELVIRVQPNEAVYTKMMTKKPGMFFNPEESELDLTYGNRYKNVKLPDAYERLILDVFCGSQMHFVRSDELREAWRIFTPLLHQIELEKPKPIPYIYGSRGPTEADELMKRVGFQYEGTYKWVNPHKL
T4 sequence (P11940 whole entry): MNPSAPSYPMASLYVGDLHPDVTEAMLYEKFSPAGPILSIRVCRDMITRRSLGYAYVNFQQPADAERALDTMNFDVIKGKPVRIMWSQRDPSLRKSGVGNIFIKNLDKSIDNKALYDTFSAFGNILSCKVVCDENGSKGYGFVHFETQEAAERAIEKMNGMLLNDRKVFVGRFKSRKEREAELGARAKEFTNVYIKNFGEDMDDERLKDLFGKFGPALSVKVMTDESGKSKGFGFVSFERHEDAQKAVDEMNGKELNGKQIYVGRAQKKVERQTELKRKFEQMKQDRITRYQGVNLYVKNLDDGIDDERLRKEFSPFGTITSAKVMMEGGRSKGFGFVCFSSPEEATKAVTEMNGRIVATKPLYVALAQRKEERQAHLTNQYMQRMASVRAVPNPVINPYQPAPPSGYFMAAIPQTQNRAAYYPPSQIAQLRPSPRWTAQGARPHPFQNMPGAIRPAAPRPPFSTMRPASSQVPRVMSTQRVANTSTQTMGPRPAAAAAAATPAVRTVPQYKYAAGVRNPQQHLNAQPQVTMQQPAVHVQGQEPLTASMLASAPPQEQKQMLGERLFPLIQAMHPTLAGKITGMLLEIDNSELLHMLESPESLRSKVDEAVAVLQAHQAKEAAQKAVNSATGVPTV

With `CC[C@@H](C)[C@H]([C@H](CC(=O)N1CCC[C@@H]1[C@@H](OC)[C@H](C)C(=O)N[C@H](Cc1ccccc1)c1nccs1)OC)N(C)C(=O)[C@H](NC(=O)[C@@H](C(C)C)N(C)C)C(C)C`, the concentration for 50% growth inhibition (GI50) in the experiment with P388 and in the experiment with P388/ADR was 0.000425 µM (active) throughout.

On to `COc1ccc(C2(CNC(=O)c3ccc(OC)c([N+](=O)[O-])c3)CCCCC2)cc1OC`, for which the IC50 in experiment [1] is 60.7 µM (inactive).

As for `CN(C)c1ccc(C=c2c3ccccc3n3c2c2ccccc2[n+]3C)cc1`, the IC50 in experiment [1] is > 80 µM (inactive).

Consider `NCCN1C(=O)S/C(=C\c2ccc3c(c2)OCO3)C1=O`, for which, in [2], the EC50 is 1.48 µM (active). Also, in experiment [3], the AC50 is 22.3 µM (active).

Consider `O=C(O)CCc1ccc(-c2ccccc2)n1NC(=O)c1ccco1`, for which the IC50 on Protein skinhead-1 was > 100 µM (inactive).

As to `COc1ccc(CC(=O)Nc2cc(S(=O)(=O)N3CCOCC3)ccc2N2CCOCC2)cc1`, the IC50 on Protein skinhead-1 was > 100 µM (inactive).

On to `O=[N+]([O-])c1ccc(/C=C/c2ccc(/N=N/c3ccc(/C=C/c4ccc([N+](=O)[O-])cc4S(=O)(=O)O)c(S(=O)(=O)O)c3)cc2S(=O)(=O)O)c(S(=O)(=O)O)c1`, for which the GI50 in the experiment on P388, in the experiment on P388/ADR and in the experiment on SN12K1 was > 100 µM (inactive) in each case.

With `Cc1cnc(NC(=O)c2nn(C)cc2[N+](=O)[O-])s1`, the concentration at half-maximal activity (AC50) in [3] was 20.6 µM (active).

As for `CSc1nc2c(ncn2C2OC(CO)C(O)C(O)C2O)c(=O)n1C` (centres undefined), the GI50 in the experiment with P388 was > 100 µM (inactive); in the experiment on P388/ADR, > 10 µM (inactive); in the experiment with SN12K1, > 100 µM (inactive).

On to `CN(C=[N+](C)C)c1cccc2c1C(=O)c1ccccc1C2=O`, for which the IC50 in experiment [4] is > 66 µM (inactive); in experiment [5] it was 58.5 µM (inactive). Also, the AC50 in experiment [6] was > 20 µM (inactive).

As for `CCCCCn1nnc2c(=O)oc3ccccc3c21`, in the experiment “cells [7]”, the IC50 was 2.67 µM (active).

In the case of `O=NN1C(c2ccccc2)C2CCCC(C2=O)C1c1ccccc1` (centres undefined), the GI50 with P388 is 36.3 µM (inactive); in the experiment on P388/ADR, 22.5 µM (inactive); in the experiment with SN12K1 it was 26.5 µM (inactive).

Turning to `O=C(NC(c1ccc(-c2ccccc2)cc1)c1cnccn1)C1CCN(Cc2cccs2)CC1` (centres undefined), the IC50 on Protein skinhead-1 was > 100 µM (inactive).

As for `CCCCCCCCCCCCCCCCCCOCC(COP(=O)([O-])OCC[N+](C)(C)C)OC` (centres undefined) [EDELFOSINE], the results for the GI50 in the experiment with P388, in the experiment with P388/ADR and in the experiment on SN12K1 were 2.65 µM (inactive), 4.07 µM (inactive) and 11.2 µM (inactive), respectively.

As to `CC(C)=N/N=C(\N)SCc1ccccc1`, the EC50 in the experiment “cells [8]” was > 29.9 µM (inactive). Besides, in “cells [9]”, the IC50 is > 29.9 µM (inactive).

On to `CCN(CC)CCCNC(=O)C1CCN(C(=O)c2oc3cc4sc(N(C)C)nc4cc3c2C)CC1`, for which the AC50 in experiment [6] is > 20 µM (inactive).

For the compound `Cc1ccc(-c2nnc(SCC#CCOC(=O)c3ccco3)o2)cc1`, in the experiment “cells [7]”, the IC50 was 4.78 µM (active).

`Brc1ccc(-c2csc(-c3ccncc3)n2)cc1`: the IC50 at Protein skinhead-1 is 51.6 µM (inactive).

`N#C/C(=C\c1ccc(F)cc1)c1nc(-c2ccco2)cs1`: at Protein skinhead-1, the IC50 was > 100 µM (inactive).

For the compound `Cc1ccc2sc(N(CCCN(C)C)C(=O)c3ccc(S(=O)(=O)N(C)C4CCCCC4)cc3)nc2c1C`, the EC50 in experiment [10] was 10.3 µM (active); in [12], 148 nM (active). Further, the half-maximal activity concentration (AC50) in experiment [3] was 18 µM (active); in experiment [11] it was 3.72 µM (active).

As for `COC1/C=C/O[C@@]2(C)Oc3c(C)c(O)c4c(O)c(cc(O)c4c3C2=O)NC(=O)/C(C)=C\C=C\[C@H](C)C(O)[C@@H](C)[C@@H](O)[C@@H](C)[C@H](OC(C)=O)[C@@H]1C` (some centres undefined), the results for the GI50 in the experiment with P388, with P388/ADR and with SN12K1 were 5.41 µM (inactive), 10.9 µM (inactive) and 15.2 µM (inactive), respectively.

As usually defined, the GI50 is the concentration giving 50% growth inhibition. A word on the EC50: it is the concentration needed to bring the measured effect to its halfway point. Usually AC50 stands for the concentration giving half of the maximal activity seen.
